According to ChEMBL document CHEMBL3045985, “Three-dimensional common-feature hypotheses for hypoglycemic flavonyl-2,4-thiazolidinedione derivatives” (2010):

How the values were obtained:
Type in all cases: functional
INS1 [1] = test: Hypoglycemic activity in Rattus norvegicus (rat) INS1 cells assessed as glucose-mediated insulin release after 90 min (reference value: 62.96 +/- 5.68 to 69.70 +/- 4.98 %)
INS1 [2] = test: Hypoglycemic activity in Rattus norvegicus (rat) INS1 cells assessed as insulin release at 5.6 mmol/l after 90 min (reference value: 62.96 +/- 5.68 to 69.70 +/- 4.98 %)
INS1 [3] = test: Hypoglycemic activity in Rattus norvegicus (rat) INS1 cells assessed as glucose-mediated insulin release at 1 ug/ml after 90 min (reference value: 62.96 +/- 5.68 to 69.70 +/- 4.98 %)
INS1 [4] = test: Hypoglycemic activity in Rattus norvegicus (rat) INS1 cells assessed as glucose-mediated insulin release at 10 umol/l after 90 min (reference value: 62.96 +/- 5.68 to 69.70 +/- 4.98 %)

| Structure (SMILES) | Activity (INS1 [1]) | also measured |
| --- | --- | --- |
| O=C1NC(=S)N/C1=C\c1ccc(-c2cc(=O)c3ccccc3o2)cc1 | 130.3% | – |
| CN1C(=O)/C(=C/c2ccc(-c3cc(=O)c4ccccc4o3)cc2)N(C)C1=S | 114.3% | – |
| CCN1C(=O)/C(=C/c2ccc(-c3cc(=O)c4ccccc4o3)cc2)N(CC)C1=S | 96.27% | – |
| O=C1NC(=O)C(Cc2cccc(-c3cc(=O)c4ccccc4o3)c2)S1 (stereo not drawn) | 69.89% | – |
| O=C1NC(=O)/C(=C\c2cccc(-c3cc(=O)c4ccccc4o3)c2)S1 | 79.76% | – |
| CN1C(=O)S/C(=C/c2cccc(-c3cc(=O)c4ccccc4o3)c2)C1=O | 134.9% | – |
| CCN1C(=O)S/C(=C/c2cccc(-c3cc(=O)c4ccccc4o3)c2)C1=O | 299% | – |
| O=C1NC(=O)/C(=C\c2cccc(-c3cc(=O)c4ccccc4o3)c2)N1 | 103.3% | – |
| CN1C(=O)/C(=C\c2cccc(-c3cc(=O)c4ccccc4o3)c2)N(C)C1=O | 218.3% | – |
| CCN1C(=O)N/C(=C/c2cccc(-c3cc(=O)c4ccccc4o3)c2)C1=O | 167.8% | – |
| O=C1NC(=S)N/C1=C/c1cccc(-c2cc(=O)c3ccccc3o2)c1 | 247.1% | – |
| CN1C(=O)/C(=C\c2cccc(-c3cc(=O)c4ccccc4o3)c2)N(C)C1=S | 102.8% | – |
| CCN1C(=O)/C(=C\c2cccc(-c3cc(=O)c4ccccc4o3)c2)NC1=S | 129.6% | – |
| O=C1NC(=O)C(Cc2ccc(-c3cc(=O)c4ccccc4o3)cc2)S1 (stereo not drawn) | 135.5% | – |
| CN1C(=O)S/C(=C\c2ccc(-c3cc(=O)c4ccccc4o3)cc2)C1=O | 145.1% | – |
| CCN1C(=O)S/C(=C\c2ccc(-c3cc(=O)c4ccccc4o3)cc2)C1=O | 117.9% | – |
| O=C1NC(=O)/C(=C/c2ccc(-c3cc(=O)c4ccccc4o3)cc2)N1 | 105.1% | – |
| CN1C(=O)/C(=C/c2ccc(-c3cc(=O)c4ccccc4o3)cc2)N(C)C1=O | 103.4% | – |
| CCN1C(=O)/C(=C/c2ccc(-c3cc(=O)c4ccccc4o3)cc2)N(CC)C1=O | 127.1% | – |
| O=C1NC(=O)/C(=C/c2ccc(-c3cc(=O)c4ccccc4o3)cc2)S1 | 55.7% | – |
| OC[C@H]1OC(O)[C@H](O)[C@@H](O)[C@@H]1O (stereo partly drawn) [DEXTROSE] | – | Activity (INS1 [2]): 100% |
| COc1ccc(Cl)cc1C(=O)NCCc1ccc(S(=O)(=O)NC(=O)NC2CCCCC2)cc1 [GLYBURIDE] | – | Activity (INS1 [3]): 210.4% |
| CN(CCOc1ccc(CC2SC(=O)NC2=O)cc1)c1ccccn1 (stereo not drawn) [ROSIGLITAZONE] | – | Activity (INS1 [4]): 116% |
